Data: ChEMBL document CHEMBL6153133, “Discovery of Diphenyl Ether Derivatives as Novel BKCa Channel Activators: Structure-Activity Relationship, Cryo-EM Complex Structures, and In Vivo Animal Studies” (J Med Chem, 2025)
pEC50: −log10 of the molar value. One block for each compound: values may come before it.

Experiments:
[1] = Drug metabolism in male Sprague-Dawley rat assessed as glucuronide conjugated metabolite formation at 10 mg/kg, po measured after approximately 4.2 hrs by LC-MS/MS analysis; assay type: ADME, organism-based; details: in vivo
[2] = Metabolic stability in human liver microsomes assessed as parent compound remaining at 1 uM preincubated for 5 mins followed by NADPH addition and measured after 30 mins by LC-MS/MS analysis; assay type: ADME, Microsome; details: read-out: Stability
[3] = Activation of rat BKca channel extracted from Xenopus laevis Oocytes by patch-clamp electrophysiology recordings; assay type: cell-based; details: Oocyte
[4] = Metabolic stability in human liver microsomes assessed as parent compound remaining at 1 uM preincubated for 15 mins followed by UDPGA addition and measured after 60 mins by LC-MS/MS analysis; assay type: ADME, Microsome; details: time 75 min, read-out: Stability
[5] = Metabolic stability in rat liver microsomes assessed as parent compound remaining at 1 uM preincubated for 15 mins followed by UDPGA addition and measured after 60 mins by LC-MS/MS analysis; assay type: ADME, Microsome; details: time 75 min, read-out: Stability
[6] = Permeability of compound at pH 7.4 measured after 4 hrs by GIT-PAMPA assay; assay type: ADME; details: read-out: permeability
[7] = target: Calcium-activated potassium channel subunit alpha-1 (Homo sapiens, UniProt Q12791, G803D/N806K); experiment: Activation of hyperactive human BKca channel G803D/N806K mutant transfected in human AD-293 cells incubated for 15 mins by Flexstation3 multimode microplate reader analysis; assay type: cell-based
Calcium-activated potassium channel subunit alpha-1 (Homo sapiens, UniProt Q12791, G803D/N806K), sequence (Q12791 whole entry, looked up, stated change not applied): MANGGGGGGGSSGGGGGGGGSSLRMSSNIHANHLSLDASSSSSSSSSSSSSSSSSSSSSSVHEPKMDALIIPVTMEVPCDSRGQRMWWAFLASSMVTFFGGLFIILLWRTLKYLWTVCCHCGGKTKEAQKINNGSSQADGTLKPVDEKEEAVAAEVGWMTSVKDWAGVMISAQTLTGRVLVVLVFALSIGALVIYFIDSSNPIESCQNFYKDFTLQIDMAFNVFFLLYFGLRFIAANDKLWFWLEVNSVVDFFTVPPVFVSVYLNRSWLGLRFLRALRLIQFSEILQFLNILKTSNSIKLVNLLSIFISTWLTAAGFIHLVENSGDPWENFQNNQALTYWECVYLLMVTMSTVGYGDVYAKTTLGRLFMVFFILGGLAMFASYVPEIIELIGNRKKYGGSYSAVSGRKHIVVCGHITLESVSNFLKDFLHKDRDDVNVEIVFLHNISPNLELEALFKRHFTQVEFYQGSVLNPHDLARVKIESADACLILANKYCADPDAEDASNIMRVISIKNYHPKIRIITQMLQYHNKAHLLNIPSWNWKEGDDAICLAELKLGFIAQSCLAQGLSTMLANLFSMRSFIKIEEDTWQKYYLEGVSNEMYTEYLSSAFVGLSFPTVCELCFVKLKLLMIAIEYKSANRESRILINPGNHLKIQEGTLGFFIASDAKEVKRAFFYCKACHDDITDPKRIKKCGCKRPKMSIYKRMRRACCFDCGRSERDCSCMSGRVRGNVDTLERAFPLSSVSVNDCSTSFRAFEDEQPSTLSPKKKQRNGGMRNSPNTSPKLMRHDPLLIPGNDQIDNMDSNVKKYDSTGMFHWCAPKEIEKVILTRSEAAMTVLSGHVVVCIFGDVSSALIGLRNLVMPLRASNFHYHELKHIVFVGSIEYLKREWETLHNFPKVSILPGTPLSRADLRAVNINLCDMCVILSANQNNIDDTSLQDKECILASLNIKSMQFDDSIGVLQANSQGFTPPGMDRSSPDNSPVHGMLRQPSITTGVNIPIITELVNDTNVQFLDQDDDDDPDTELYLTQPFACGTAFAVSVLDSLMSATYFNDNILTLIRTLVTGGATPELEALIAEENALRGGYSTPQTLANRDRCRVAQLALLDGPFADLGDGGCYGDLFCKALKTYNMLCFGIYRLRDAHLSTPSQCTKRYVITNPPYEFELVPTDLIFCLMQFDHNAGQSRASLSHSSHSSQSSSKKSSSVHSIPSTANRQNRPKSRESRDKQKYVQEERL

[8] = Metabolic stability in rat liver microsomes assessed as parent compound remaining at 1 uM preincubated for 5 mins followed by NADPH addition and measured after 30 mins by LC-MS/MS analysis; assay type: ADME, Microsome; details: read-out: Stability
[9] = target: T1, Calcium-activated potassium channel subunit alpha-1 (Homo sapiens, UniProt Q12791); experiment: Activation of BKca channel (unknown origin) by patch-clamp method
T1 sequence (Q12791 whole entry): as the sequence (Q12791 whole entry, looked up, stated change not applied) above

[10] = target: T1, Calcium-activated potassium channel subunit alpha-1; experiment: Activation of human BK ca channel expressed in CHO cells by whole cell patch clamp method; assay type: cell-based
Rattus norvegicus [11] = experiment: Reversal of urinary incontinence in male spontaneous hypertensive rat model assessed as decrease in urine volume at 100 mg/kg, po measured after 3 hrs relative to control; assay type: functional; design: scale not given: the % may be the effect or the level left
[12] = Clearance in male Dunkin Hartley guinea pig at 10 mg/kg, iv by LC-MS/MS analysis; assay type: ADME, organism-based, Cavia porcellus; details: in vivo
[13] = Ratio of drug concentration in male Dunkin Hartley guinea pig brain to plasma at 10 mg/kg, po measured after 1 hrs by LC-MS/MS analysis; assay type: ADME, organism-based, Cavia porcellus; details: read-out: BPR
[14] = Drug concentration in male Dunkin Hartley guinea pig brain at 10 mg/kg, po measured after 4 hrs by LC-MS/MS analysis; assay type: ADME, organism-based, Cavia porcellus; details: read-out: Ct
[15] = Cmax in male Dunkin Hartley guinea pig at 10 mg/kg, po by LC-MS/MS analysis; assay type: ADME, organism-based, Cavia porcellus; details: in vivo
[16] = Half-life in male Dunkin Hartley guinea pig at 10 mg/kg, po by LC-MS/MS analysis; assay type: ADME, organism-based, Cavia porcellus; details: in vivo
[17] = Aqueous solubility of compound in pure distilled water at >50 mg/ml; assay type: physicochemical; details: buffer
[18] = Volume of distribution at steady state in male Dunkin Hartley guinea pig at 10 mg/kg, iv by LC-MS/MS analysis; assay type: ADME, organism-based, Cavia porcellus; details: in vivo, read-out: Vdss
[19] = Oral bioavailability in male Dunkin Hartley guinea pig at 10 mg/kg by LC-MS/MS analysis; assay type: ADME, organism-based, Cavia porcellus; details: in vivo
[20] = AUClast in male Sprague-Dawley rat at 10 mg/kg, po by LC-MS/MS analysis; assay type: ADME, organism-based; details: in vivo
[21] = Aqueous solubility of compound in PBS at >50 mg/ml; assay type: physicochemical; details: buffer
[22] = Drug concentration in male Dunkin Hartley guinea pig lung at 10 mg/kg, po measured after 4 hrs by LC-MS/MS analysis; assay type: ADME, organism-based, Cavia porcellus; details: read-out: Ct
[23] = AUClast in male Dunkin Hartley guinea pig at 10 mg/kg, po by LC-MS/MS analysis; assay type: ADME, organism-based, Cavia porcellus; details: in vivo
[24] = Tmax in male Sprague-Dawley rat at 10 mg/kg, po by LC-MS/MS analysis; assay type: ADME, organism-based; details: in vivo
[25] = Drug concentration in male Dunkin Hartley guinea pig blood at 10 mg/kg, po measured after 4 hrs by LC-MS/MS analysis; assay type: ADME, organism-based, Cavia porcellus; details: read-out: Ct
[26] = AUClast in male Dunkin Hartley guinea pig at 10 mg/kg, iv by LC-MS/MS analysis; assay type: ADME, organism-based, Cavia porcellus; details: in vivo
[27] = Ratio of drug concentration in male Dunkin Hartley guinea pig brain to plasma at 10 mg/kg, po measured after 4 hrs by LC-MS/MS analysis; assay type: ADME, organism-based, Cavia porcellus; details: read-out: BPR
Cavia porcellus [28] = experiment: Antitussive activity in citric acid-induced male Dunkin Hartley guinea pig cough model assessed as reduction in cough number at 8 mg/kg, po pretreated with compound for 4 hrs followed by citric acid administration and measured after 10 mins relative to control; assay type: functional; design: scale not given: the % may be the effect or the level left; details: time 250 min, 4.167 h
[29] = Cmax in male Sprague-Dawley rat at 10 mg/kg, po by LC-MS/MS analysis; assay type: ADME, organism-based; details: in vivo
[30] = Drug concentration in male Dunkin Hartley guinea pig blood at 10 mg/kg, po measured after 1 hrs by LC-MS/MS analysis; assay type: ADME, organism-based, Cavia porcellus; details: read-out: Ct
[31] = Half-life in male Dunkin Hartley guinea pig at 10 mg/kg, iv by LC-MS/MS analysis; assay type: ADME, organism-based, Cavia porcellus; details: in vivo
[32] = Half-life in male Sprague-Dawley rat at 10 mg/kg, po by LC-MS/MS analysis; assay type: ADME, organism-based; details: in vivo
Rattus norvegicus [33] = experiment: Reversal of urinary incontinence in male spontaneous hypertensive rat model assessed as decrease in urine frequency at 100 mg/kg, po measured after 3 hrs relative to control; assay type: functional; design: scale not given: the % may be the effect or the level left
Cavia porcellus [34] = experiment: Antitussive activity in citric acid-induced male Dunkin Hartley guinea pig cough model assessed as reduction in cough number at 50 mg/kg, po pretreated with compound for 4 hrs followed by citric acid administration and measured after 10 mins relative to control; assay type: functional; design: scale not given: the % may be the effect or the level left; details: time 250 min, 4.167 h
[35] = Toxicity in male spontaneous hypertensive rat model at 100 mg/kg, po; assay type: organism-based; details: in vivo
[36] = Ratio of drug concentration in male Dunkin Hartley guinea pig lung to plasma at 10 mg/kg, po measured after 4 hrs by LC-MS/MS analysis; assay type: ADME, organism-based, Cavia porcellus
Cavia porcellus [37] = experiment: Antitussive activity in citric acid-induced male Dunkin Hartley guinea pig cough model assessed as reduction in cough number pretreated orally with compound for 4 hrs followed by citric acid administration and measured after 10 mins; assay type: functional; details: 4.167 h, route po, time 250 min
[38] = Ratio of drug concentration in male Dunkin Hartley guinea pig lung to plasma at 10 mg/kg, po measured after 1 hrs by LC-MS/MS analysis; assay type: ADME, organism-based, Cavia porcellus
[39] = Drug concentration in male Dunkin Hartley guinea pig brain at 10 mg/kg, po measured after 1 hrs by LC-MS/MS analysis; assay type: ADME, organism-based, Cavia porcellus; details: read-out: Ct
Cavia porcellus [40] = experiment: Antitussive activity in citric acid-induced male Dunkin Hartley guinea pig cough model assessed as reduction in cough number at 20 mg/kg, po pretreated with compound for 4 hrs followed by citric acid administration and measured after 10 mins relative to control; assay type: functional; design: scale not given: the % may be the effect or the level left; details: time 250 min, 4.167 h
[41] = Tmax in male Dunkin Hartley guinea pig at 10 mg/kg, po by LC-MS/MS analysis; assay type: ADME, organism-based, Cavia porcellus; details: in vivo
[42] = Drug concentration in male Dunkin Hartley guinea pig lung at 10 mg/kg, po measured after 1 hrs by LC-MS/MS analysis; assay type: ADME, organism-based, Cavia porcellus; details: read-out: Ct

Drug metabolism [1]: metabolite_detected
remaining at 0.5 h, 1 µM [2]: 97%
pEC50 [3]: 6.55
remaining at 1 h, 1 µM [4]: 4.8%
remaining at 1 h, 1 µM [5]: 5.8%
Papp at 4 h [6]: 411 nm/s
pEC50 [7]: 6.92
remaining at 0.5 h, 1 µM [8]: 34.6%
SMILES: Nc1ccc(Oc2c(F)c(F)c(C(F)(F)F)c(F)c2F)c(O)c1

pEC50 [9]: 5.00
SMILES: O=c1[nH]c2cc(C(F)(F)F)ccc2n1-c1cc(C(F)(F)F)ccc1O

pEC50 [10]: 3.95
SMILES: CCc1oc2ccccc2c1C(=O)c1cc(Br)c(O)c(Br)c1 [BENZBROMARONE]

clearance [12]: 5.6 L/h/kg
Kp at 1 h [13]: 15
concentration at 4 h [14]: 414 ng/g
Cmax [15]: 0.0318 µg/mL
half-life [16]: 4.7 h
solubility [17]: soluble
Vd [18]: 18.1 L/kg
bioavailability [19]: 10.5%
AUC(0-t) [20]: 0.844 µg·h/mL
solubility [21]: soluble
concentration at 4 h [22]: 13500 ng/g
AUC(0-t) [23]: 0.188 µg·h/mL
Tmax [24]: 0.4 h
concentration at 4 h [25]: 0.023 µg/mL
AUC(0-t) [26]: 1.8 µg·h/mL
Kp at 4 h [27]: 18
Cmax [29]: 0.283 µg/mL
concentration at 1 h [30]: 0.028 µg/mL
half-life [31]: 4 h
half-life [32]: 7.1 h
Kp at 4 h [36]: 587
Kp at 1 h [38]: 291
concentration at 1 h [39]: 424 ng/g
Tmax [41]: 1.8 h
concentration at 1 h [42]: 8160 ng/g
SMILES: Cl.Cl.Oc1cc(NCCCCCN2CCOCC2)ccc1Oc1c(F)c(F)c(C(F)(F)F)c(F)c1F
Activity (Rattus norvegicus [11]): 62.6%
Activity (Cavia porcellus [28]): 25.4%
Activity (Rattus norvegicus [33]): 61.4%
Activity (Cavia porcellus [34]): 69.3%
Activity [35]: Non-toxic
ED50 (Cavia porcellus [37]): 11.8 mg/kg
Activity (Cavia porcellus [40]): 54.4%
